Counter-ions that a name gives are not always drawn. Like-named read-outs stand apart in the source and are kept apart here.
What was measured:
Assay type in all cases: biochemical
[1] = biological target: T1, human JAK2 (a.a. 828-1132) (Homo sapiens, UniProt O60674); assay: In vitro JAK kinase assay (HTRF, phosphorylation of a biotinylated peptide), JAK2
T1 construct: JAK2 (a.a. 828-1132); His tag (N); made in house; host or cells: insect cells (baculovirus)
Outline: (§1)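 Phosphorylation of a biotinylated peptide by the JAK kinase domain, detected by HTRF with Eu-Py20 and SA-APC. ATP was 90 μM for JAK1, 30 μM for JAK2 and 3 μM for JAK3. Reactions ran 1 h at room temperature and were stopped with EDTA, followed by 40 min antibody binding.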

[2] = biological target: T2, Recombinant Human Anaplastic Lymphoma Kinase (Homo sapiens, UniProt Q9UM73); assay: ALK HTRF kinase assay
T2 construct: purchased Invitrogen, Carlsbad, Calif
T2 sequence (Q9UM73 19-1620): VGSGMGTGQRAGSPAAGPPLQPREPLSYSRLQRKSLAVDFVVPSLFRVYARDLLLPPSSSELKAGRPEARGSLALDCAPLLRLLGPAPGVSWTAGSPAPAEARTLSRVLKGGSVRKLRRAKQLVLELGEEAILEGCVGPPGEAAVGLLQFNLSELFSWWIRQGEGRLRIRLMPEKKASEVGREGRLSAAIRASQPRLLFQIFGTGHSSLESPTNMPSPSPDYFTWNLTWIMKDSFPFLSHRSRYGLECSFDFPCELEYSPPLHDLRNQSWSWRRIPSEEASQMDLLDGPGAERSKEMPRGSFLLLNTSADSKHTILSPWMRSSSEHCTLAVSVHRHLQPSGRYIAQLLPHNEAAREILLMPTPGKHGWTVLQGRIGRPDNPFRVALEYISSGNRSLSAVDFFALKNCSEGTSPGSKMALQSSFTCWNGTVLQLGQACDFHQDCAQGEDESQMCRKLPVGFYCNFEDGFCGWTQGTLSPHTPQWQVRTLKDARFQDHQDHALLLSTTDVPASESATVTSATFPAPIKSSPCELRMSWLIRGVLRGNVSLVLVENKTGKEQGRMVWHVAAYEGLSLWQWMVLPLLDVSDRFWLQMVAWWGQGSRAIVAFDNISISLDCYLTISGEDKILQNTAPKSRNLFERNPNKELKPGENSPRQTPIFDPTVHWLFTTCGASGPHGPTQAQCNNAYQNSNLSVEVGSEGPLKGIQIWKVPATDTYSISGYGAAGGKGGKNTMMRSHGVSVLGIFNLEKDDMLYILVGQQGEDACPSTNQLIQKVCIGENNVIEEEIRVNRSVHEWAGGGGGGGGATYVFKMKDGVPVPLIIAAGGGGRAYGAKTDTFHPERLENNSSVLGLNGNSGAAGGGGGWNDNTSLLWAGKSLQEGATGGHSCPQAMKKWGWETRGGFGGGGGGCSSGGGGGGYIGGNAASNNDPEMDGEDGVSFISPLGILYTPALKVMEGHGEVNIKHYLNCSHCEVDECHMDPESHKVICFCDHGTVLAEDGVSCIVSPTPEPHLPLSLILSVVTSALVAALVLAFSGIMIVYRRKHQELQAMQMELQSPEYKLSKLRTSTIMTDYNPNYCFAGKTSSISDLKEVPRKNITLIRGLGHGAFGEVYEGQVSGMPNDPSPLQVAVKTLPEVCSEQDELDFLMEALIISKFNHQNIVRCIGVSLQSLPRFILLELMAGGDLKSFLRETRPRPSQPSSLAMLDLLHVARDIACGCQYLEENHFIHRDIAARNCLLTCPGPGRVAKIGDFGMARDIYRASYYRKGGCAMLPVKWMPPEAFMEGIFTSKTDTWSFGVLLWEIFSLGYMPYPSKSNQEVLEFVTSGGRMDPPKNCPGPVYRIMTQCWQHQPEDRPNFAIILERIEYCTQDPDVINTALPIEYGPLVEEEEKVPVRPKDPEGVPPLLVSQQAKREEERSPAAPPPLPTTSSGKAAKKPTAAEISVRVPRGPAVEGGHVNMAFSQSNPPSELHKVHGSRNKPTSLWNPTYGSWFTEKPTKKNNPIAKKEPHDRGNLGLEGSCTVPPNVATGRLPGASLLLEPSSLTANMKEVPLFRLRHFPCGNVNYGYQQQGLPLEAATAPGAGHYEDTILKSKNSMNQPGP
Outline: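 Kinase activity of the recombinant human protein is measured on a biotinylated peptide, with a Eu-W1024 anti-phosphotyrosine antibody and streptavidin-allophycocyanin generating the homogeneous time-resolved fluorescence signal. Inhibition curves are fitted to yield IC50.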

TYK2 = TYK2 (Homo sapiens, UniProt P29597); assay: TYK2 kinase inhibition (Table A1)
Sequence of TYK2 (P29597 whole entry): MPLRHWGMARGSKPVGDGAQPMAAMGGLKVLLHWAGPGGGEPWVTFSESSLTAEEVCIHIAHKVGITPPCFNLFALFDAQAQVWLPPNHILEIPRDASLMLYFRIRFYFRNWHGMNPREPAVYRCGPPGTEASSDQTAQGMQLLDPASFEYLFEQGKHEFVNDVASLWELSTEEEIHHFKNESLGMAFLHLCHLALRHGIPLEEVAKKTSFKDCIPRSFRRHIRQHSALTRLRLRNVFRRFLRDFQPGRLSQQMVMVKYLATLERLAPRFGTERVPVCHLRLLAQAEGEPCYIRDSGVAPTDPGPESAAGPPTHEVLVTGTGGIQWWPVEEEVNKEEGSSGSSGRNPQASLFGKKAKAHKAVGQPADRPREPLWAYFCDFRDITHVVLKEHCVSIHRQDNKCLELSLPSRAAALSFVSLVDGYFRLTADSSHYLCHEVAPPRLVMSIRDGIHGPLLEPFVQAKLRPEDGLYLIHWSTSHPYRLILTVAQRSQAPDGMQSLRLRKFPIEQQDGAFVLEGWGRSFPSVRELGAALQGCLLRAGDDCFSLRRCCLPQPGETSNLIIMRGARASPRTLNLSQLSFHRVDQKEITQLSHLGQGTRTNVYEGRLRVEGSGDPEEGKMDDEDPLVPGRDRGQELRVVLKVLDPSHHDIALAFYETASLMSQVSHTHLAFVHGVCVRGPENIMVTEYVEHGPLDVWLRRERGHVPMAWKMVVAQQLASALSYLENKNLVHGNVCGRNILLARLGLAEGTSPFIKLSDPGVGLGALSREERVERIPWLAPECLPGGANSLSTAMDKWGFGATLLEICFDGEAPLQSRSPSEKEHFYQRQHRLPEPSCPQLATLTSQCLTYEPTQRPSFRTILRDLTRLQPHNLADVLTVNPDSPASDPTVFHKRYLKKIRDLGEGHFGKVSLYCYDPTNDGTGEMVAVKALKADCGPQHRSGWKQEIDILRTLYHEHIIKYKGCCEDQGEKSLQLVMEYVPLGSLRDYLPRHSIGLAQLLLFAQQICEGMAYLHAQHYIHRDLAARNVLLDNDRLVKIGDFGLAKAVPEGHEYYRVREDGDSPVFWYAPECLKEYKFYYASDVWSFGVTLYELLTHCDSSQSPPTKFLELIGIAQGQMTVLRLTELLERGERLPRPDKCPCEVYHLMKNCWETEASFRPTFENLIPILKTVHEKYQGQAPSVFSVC

[3] = biological target: T3, human JAK1 (a.a. 837-1142) (Homo sapiens, UniProt P23458); assay: In vitro JAK kinase assay (HTRF, phosphorylation of a biotinylated peptide), JAK1; conditions: read-out: JAK1 IC50
T3 construct: human JAK1 (a.a. 837-1142); His tag (N); made in house; host or cells: insect cells (baculovirus)
T3 sequence (P23458 849-1154): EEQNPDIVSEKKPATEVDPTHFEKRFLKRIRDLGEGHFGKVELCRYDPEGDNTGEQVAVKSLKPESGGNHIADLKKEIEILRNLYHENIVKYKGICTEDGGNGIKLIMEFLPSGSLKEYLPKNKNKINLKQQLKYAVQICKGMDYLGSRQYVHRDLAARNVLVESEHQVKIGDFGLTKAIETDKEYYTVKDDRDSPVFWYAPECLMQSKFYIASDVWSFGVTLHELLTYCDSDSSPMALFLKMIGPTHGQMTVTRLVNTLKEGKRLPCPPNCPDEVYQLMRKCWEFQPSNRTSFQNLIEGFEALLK
Outline: as §1

[4] = biological target: T4, human JAK3 (a.a. 781-1124) (Homo sapiens, UniProt P52333); assay: In vitro JAK kinase assay (HTRF, phosphorylation of a biotinylated peptide), JAK3
T4 construct: JAK3 (a.a. 781-1124); His tag (N); made in house; host or cells: insect cells (baculovirus)
T4 sequence (P52333 781-1124): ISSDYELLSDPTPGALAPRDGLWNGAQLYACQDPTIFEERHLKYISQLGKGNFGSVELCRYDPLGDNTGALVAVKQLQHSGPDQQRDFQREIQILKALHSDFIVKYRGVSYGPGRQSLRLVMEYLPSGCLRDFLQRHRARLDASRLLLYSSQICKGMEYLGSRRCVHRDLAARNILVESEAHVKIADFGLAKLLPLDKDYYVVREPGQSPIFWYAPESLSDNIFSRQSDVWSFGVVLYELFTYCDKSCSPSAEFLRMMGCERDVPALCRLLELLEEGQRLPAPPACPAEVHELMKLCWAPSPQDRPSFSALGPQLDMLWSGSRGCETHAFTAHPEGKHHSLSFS
Outline: as §1

[5] = compound at a concentration of 500 nM or 1 mM (not specified), cells shown as percentage
[6] = method AA1 (30 μM ATP) or AA2 (1000 μM ATP), not stated per value
[7] = compound at 500 nM or 1 mM, 90 μM ATP
[8] = method AA1 (90 μM ATP) or AA2 (1000 μM ATP), not stated per value
[9] = method AA1 (3 μM ATP) or AA2 (1000 μM ATP), not stated per value
[10] = Table B1, cells without percent sign

T1 sequence (O60674 828-1132): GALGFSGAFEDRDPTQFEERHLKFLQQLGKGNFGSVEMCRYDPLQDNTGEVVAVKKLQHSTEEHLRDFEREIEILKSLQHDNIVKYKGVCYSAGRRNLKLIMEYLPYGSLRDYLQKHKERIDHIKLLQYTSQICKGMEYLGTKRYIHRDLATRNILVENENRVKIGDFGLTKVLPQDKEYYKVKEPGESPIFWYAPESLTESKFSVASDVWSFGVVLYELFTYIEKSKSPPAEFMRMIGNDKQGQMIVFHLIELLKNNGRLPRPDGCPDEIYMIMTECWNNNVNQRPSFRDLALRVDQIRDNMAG

Row | IC50 ([1]; Table B1) | IC50 (TYK2; Table B1) | IC50 ([3]; Table B1) | IC50 ([4]; Table B1) | IC50 [1, 6] | ALK % of inhibition at a concentration of 500 nM or 1 mM [2, 7] | IC50 (TYK2) | IC50 [3, 8] | IC50 [4, 9] | Structure (SMILES) | also measured
1 | 0.00046 µM | 0.0016 µM | 0.0013 µM | 0.0031 µM |  |  |  |  |  | O=C(O)c1cccc(S(=O)(=O)Nc2ccc3cc2CCc2cccc(c2)Nc2ncc(Cl)c(n2)N3)c1 [Example B159, 3-({[6-Chloro-2,4,8,22-tetraazatetracyclo[14.3.1.1(3,7).1(9,13)]docosa-1(20),3(22),4,6,9(21),10,12,16,18-nonaen-12-yl]amino}sulfonyl)benzoic acid trifluoroacetate] | ALK % of inhibition at a concentration of 500 nM or 1 mM [2, 5]: 82%
2 |  |  |  |  | 0.068 µM | 23% | 0.055 µM | 0.0042 µM | > 0.2 µM | Nc1nc(C(=O)N2CCC(CC(=O)Nc3ccc4cc3CCc3cncc(c3)Nc3ncc(Cl)c(n3)N4)CC2)cs1 [Example A217, 2-{1-[(2-Amino-1,3-thiazol-4-yl)carbonyl]piperidin-4-yl}-N-[6-chloro-2,4,8,18,22-pentaazatetracyclo[14.3.1.1(3,7).1(9,13)]docosa-1(20),3(22),4,6,9(21),10,12,16,18-nonaen-12-yl]acetamide tris(trifluoroacetate)] | 
3 | 0.0027 µM | 0.154 µM | 0.0049 µM | 0.064 µM |  |  |  |  |  | Clc1ccc(CN2CCN(Cc3cc4cc(c3)Nc3nc(ncc3Cl)Nc3cccc(c3)CC4)CC2)cc1 [Example B199, 6-Chloro-11-{[4-(4-chlorobenzyl)piperazin-1-yl]methyl}-2,4,8,22-tetraazatetracyclo[14.3.1.1(3,7).1(9,13)]docosa-1(20),3(22),4,6,9(21),10,12,16,18-nonaene tris(trifluoroacetate)] | IC50 [2, 10]: > 1 µM
4 |  |  |  |  | > 0.2 µM | 26% | > 0.2 µM | 0.068 µM | > 0.2 µM | N#Cc1ccnc(N2CCC(CC(=O)Nc3ccc4cc3CCc3cncc(c3)Nc3ncc(Cl)c(n3)N4)CC2)c1 [Example A178, N-[6-Chloro-2,4,8,18,22-pentaazatetracyclo[14.3.1.1(3,7).1(9,13)]docosa-1(20),3(22),4,6,9(21),10,12,16,18-nonaen-12-yl]-2-[1-(4-cyanopyridin-2-yl)piperidin-4-yl]acetamide tris(trifluoroacetate)] | 
5 |  |  |  |  | 0.0016 µM | 29% | 0.0043 µM | 0.0047 µM | 0.024 µM | CN(C)S(=O)(=O)N1CCC(CC(=O)Nc2ccc3cc2CCc2cccc(c2)Nc2ncc(Cl)c(n2)N3)CC1 [Example A81, N-[6-Chloro-2,4,8,22-tetraazatetracyclo[14.3.1.1(3,7).1(9,13)]docosa-1(20),3(22),4,6,9(21),10,12,16,18-nonaen-12-yl]-2-{1-[(dimethylamino)sulfonyl]piperidin-4-yl}acetamide trifluoroacetate] | 
6 | 0.0041 µM | 0.02 µM | 0.0082 µM | 0.01 µM |  |  |  |  |  | COCC(=O)Nc1ccc2cc1CCc1cccc(c1)Nc1ncc(Cl)c(n1)N2 [Example B28, N-[6-Chloro-2,4,8,22-tetraazatetracyclo[14.3.1.1(3,7).1(9,13)]docosa-1(20), 3(22),4,6,9(21),10,12,16,18-nonaen-12-yl]-2-methoxyacetamide trifluoroacetate] | IC50 [2, 10]: 1.8 µM
7 | 0.0065 µM | 0.011 µM | 0.004 µM | 0.04 µM |  |  |  |  |  | O=C(Nc1ccc2cc1CCc1cccc(c1)Nc1ncc(Cl)c(n1)N2)N[C@H]1CCN(C(=O)c2ccncc2)C1 [Example B234, N-[6-Chloro-2,4,8,22-tetraazatetracyclo[14.3.1.1(3,7).1(9,13)]docosa-1(20),3(22),4,6,9(21),10,12,16,18-nonaen-12-yl]-N′-[(3S)-1-isonicotinoylpyrrolidin-3-yl]urea bis(trifluoroacetate)] | ALK % of inhibition at a concentration of 500 nM or 1 mM [2, 5]: 31%
8 | 0.0074 µM | 0.017 µM | 0.0047 µM | 0.048 µM |  |  |  |  |  | O=C(Nc1ccc2cc1CCc1cccc(c1)Nc1ncc(Cl)c(n1)N2)Nc1c(Cl)cccc1Cl [Example B113, N-[6-Chloro-2,4,8,22-tetraazatetracyclo[14.3.1.1(3,7).1(9,13)]docosa-1(20), 3(22),4,6,9(21),10,12,16,18-nonaen-12-yl]-N′-(2,6-dichlorophenyl)urea trifluoroacetate] | ALK % of inhibition at a concentration of 500 nM or 1 mM [2, 5]: 9.5%
9 |  |  |  |  | 0.041 µM | 17% | 0.15 µM | 0.0016 µM | > 0.2 µM | N#Cc1ccccc1S(=O)(=O)N1CCC(CC(=O)Nc2ccc3cc2CCc2cccc(c2)Nc2ncc(Cl)c(n2)N3)CC1 [Example A208, N-[6-Chloro-2,4,8,22-tetraazatetracyclo[14.3.1.1(3,7).1(9,13)]docosa-1(20),3(22),4,6,9(21),10,12,16,18-nonaen-12-yl]-2-{1-[(2-cyanophenyl)sulfonyl]piperidin-4-yl}acetamide trifluoroacetate] | 
10 |  |  |  |  |  |  |  |  |  | Clc1cnc2nc1Nc1cccc(c1)NCCCc1cccc(c1)N2 [Example D75, 6-Chloro-2,4,8,14,24-pentaazatetracyclo[16.3.1.1(3,7).1(9,13)]tetracosa-1(22),3(24),4,6,9(23),10,12,18,20-nonaene bis(trifluoroacetate)] | IC50 ([1]; Table D1): 0.026 µM; IC50 ([2]; Table D1, 90 μM ATP): 1.25 µM; IC50 (TYK2; Table D1): 0.06 µM; IC50 ([3]; Table D1): 0.05 µM; IC50 ([4]; Table D1): 0.08 µM
11 |  |  |  |  | 0.031 µM | 30% | 0.065 µM | 0.042 µM | 0.031 µM | CC(=O)N1CCC(C(=O)Nc2ccc3cc2CCc2cccc(c2)Nc2ncc(Cl)c(n2)N3)CC1 [Example A29, 1-Acetyl-N-[6-chloro-2,4,8,22-tetraazatetracyclo[14.3.1.1(3,7).1(9,13)]docosa-1(20),3(22),4,6,9(21),10,12,16,18-nonaen-12-yl]piperidine-4-carboxamide trifluoroacetate] | 
12 | 0.071 µM | > 1 µM | 0.225 µM | 0.199 µM |  |  |  |  |  | Clc1cccc(N2CCN(Cc3cc4cc(c3)Nc3nc(ncc3Cl)Nc3cccc(c3)CC4)CC2)n1 [Example B217, 6-Chloro-11-{[4-(6-chloropyridin-2-yl)piperazin-1-yl]methyl}-2,4,8,22-tetraazatetracyclo[14.3.1.1(3,7).1(9,13)]docosa-1(20),3(22),4,6,9(21),10,12,16,18-nonaene tris(trifluoroacetate)] | IC50 [2, 10]: > 10 µM
13 |  |  |  |  | 0.024 µM | 34% | 0.183 µM | 0.021 µM | 0.058 µM | O=C(Nc1ccc2cc1CCc1cccc(c1)Nc1ncc(Cl)c(n1)N2)C1CCN(S(=O)(=O)c2ccccc2)CC1 [Example A42, N-[6-Chloro-2,4,8,22-tetraazatetracyclo[14.3.1.1(3,7).1(9,13)]docosa-1(20), 3(22),4,6,9(21),10,12,16,18-nonaen-12-yl]-1-(phenylsulfonyl)piperidine-4-carboxamide trifluoroacetate] | 
14 |  |  |  |  | 0.0043 µM | 11% | 0.139 µM | 0.047 µM | 0.058 µM | O=C(COc1cc2cc(c1)Nc1nc(ncc1Cl)Nc1cccc(c1)CC2)Nc1ccccc1 [Example A24, 2-{[6-Chloro-2,4,8,22-tetraazatetracyclo[14.3.1.1(3,7).1(9,13)]docosa-1(20),3(22),4,6,9(21),10,12,16,18-nonaen-11-yl]oxy}-N-phenylacetamide trifluoroacetate] | 
15 | 0.192 µM | 0.325 µM | 0.06 µM | > 10 µM |  |  |  |  |  | Cc1noc(C)c1C(=O)N1CC[C@H](NC(=O)Nc2ccc3cc2CCc2cncc(c2)Nc2ncc(Cl)c(n2)N3)C1 [Example B274, N-[6-chloro-2,4,8,18,22-pentaazatetracyclo[14.3.1.1(3,7).1(9,13)]docosa-1(20),3(22),4,6,9(21),10,12,16,18-nonaen-12-yl]-N′-{(3S)-1-[(3,5-dimethylisoxazol-4-yl)carbonyl]pyrrolidin-3-yl}urea bis(trifluoroacetate)] | ALK % of inhibition at a concentration of 500 nM or 1 mM [2, 5]: 18%
16 |  |  |  |  |  |  |  |  |  | Clc1cnc2nc1Nc1cccc(c1)OCc1cccc(c1)N2 [Example D7, 6-Chloro-14-oxa-2,4,8,22-tetraazatetracyclo[14.3.1.1(3,7).1(9,13)]docosa-1(20),3(22),4,6,9(21),10,12,16,18-nonaene trifluoroacetate] | IC50 ([1]; Table D1): 0.061 µM; IC50 ([2]; Table D1, 90 μM ATP): > 10 µM; IC50 (TYK2; Table D1): > 0.1 µM; IC50 ([3]; Table D1): 0.1 µM; IC50 ([4]; Table D1): > 0.1 µM
17 | 0.0015 µM | 0.0032 µM | 0.0007 µM | 0.0095 µM |  |  |  |  |  | Cc1ccc(C(=O)Nc2ccc3cc2CCc2cccc(c2)Nc2ncc(Cl)c(n2)N3)cc1 [Example B47, N-[6-Chloro-2,4,8,22-tetraazatetracyclo[14.3.1.1(3,7).1(9,13)]docosa-1(20), 3(22),4,6,9(21),10,12,16,18-nonaen-12-yl]-4-methylbenzamide trifluoroacetate] | IC50 [2, 10]: 0.18 µM

Source: patent US8871753B2, “Macrocyclic compounds and their use as kinase inhibitors” (Incyte Corporation, priority 2008, dated 2014)
